Assay results: article PMC6273932, “Xanthium strumarium as an Inhibitor of α-Glucosidase, Protein Tyrosine Phosphatase 1β, Protein Glycation and ABTS^+ for Diabetic and Its Complication” (Molecules, 2016)
≈ marks a conversion by molar mass, not a printed value.

Experiments:
[1] = ABTS^+ radical scavenging activity assay
Experimental: The method described by Li et al. was used with slight modifications. ABTS^+ diammonium salt (2 mM) and potassium persulfate (3.5 mM) were mixed, diluted in distilled water and kept in the dark at room temperature for 24 h before use. After addition of ABTS^+ solution to 10 µL of antioxidant, measurements were recorded at 10 min post reaction. The percentage inhibition of absorbance at 750 nm was calculated and plotted as a function of concentration of antioxidants. Trolox was used as positive control.

[2] = biological target: T1, protein tyrosine phosphatase 1β (PTP1β) (Homo sapiens, UniProt P18031); assay: PTP1β inhibitory activity assay (colorimetric kit, IR5 phosphopeptide substrate); format: biochemical
T1 sequence (P18031 1-322 limits assumed): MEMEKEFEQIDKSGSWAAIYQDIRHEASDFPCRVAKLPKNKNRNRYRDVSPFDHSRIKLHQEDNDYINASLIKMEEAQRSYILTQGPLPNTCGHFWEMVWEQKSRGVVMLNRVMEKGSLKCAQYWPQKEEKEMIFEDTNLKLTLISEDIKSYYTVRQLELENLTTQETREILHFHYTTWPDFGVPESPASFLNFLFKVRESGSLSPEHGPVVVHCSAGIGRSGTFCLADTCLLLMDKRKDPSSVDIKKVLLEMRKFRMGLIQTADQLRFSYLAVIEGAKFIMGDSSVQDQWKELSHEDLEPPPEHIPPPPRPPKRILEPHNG
Experimental: PTP1β tyrosine phosphatase drug discovery kit is a colorimetric, non-radioactive assay designed to measure the phosphatase activity of purified PTP1β. […] Following incubation at 37 °C for 30 min, the reaction was terminated with the BIOMOL RED^TM reagent. The amount of […] produced was estimated by measuring the absorbance at 620 nm. The non-enzymatic hydrolysis of the IR5 substrate was corrected by measuring the increase in absorbance at 620 nm obtained in the absence of PTP1β enzyme.

[3] = test system: rat lens aldose reductase; settings: compounds from X. strumarium; cited from earlier work
AGEs = test system: AGEs; parameters: method as in PMID 20118563; settings: isolated from the extracts of Erigeron annuus; cited from earlier work
[4] = test system: recombinant aldose reductase; settings: compounds from X. strumarium; cited from earlier work
[5] = test system: α-glucosidase from Saccharomyces sp.; assay: α-glucosidase inhibitory activity assay (pNPG substrate, absorbance 405 nm); format: biochemical
Text: ^1H- and ^13C-NMR spectra and correlation NMR spectra such as COSY, HMBC, HMQC, and DEPT were obtained from a Bruker Avance DPX 400 (or 600) spectrometer (Berlin, Germany). These were obtained at operating frequencies of 400 MHz (^1H) and 100 (or 150) MHz (^13C) with CD3OD, (CD3)2SO, (CD3)2CO, or D2O and TMS was used as an internal standard; chemical shifts were reported in δ values. The α-glucosidase from Saccharomyces sp. (SSG) was purchased from Wako Pure Chemical Industries Ltd (Tokyo, Japan). […] All other chemicals and reagents used were of analytical grade.
The α-glucosidase inhibitory activity of the extracts and fractions was determined using a modified procedure reported method with a slight modification. The α-glucosidase activity was measured using the substrate p-nitrophenyl-α-D-glucopyranoside (pNPG), which is hydrolyzed by α-glucosidase to release the product p-nitrophenol, a colorant that can be monitored at 405 nm. The initial concentration of the enzyme solution was 0.62 unit/mL in 0.1 M phosphate buffer (pH 6.9) and the initial concentration of the substrate solution was 2 mM in the same phosphate buffer. The enzyme solution was mixed with water and the samples or controls in a clear 96-well microplate (flat bottom) and the reaction was initiated by addition of the substrate to the solution. The plates were incubated at 37 °C for 5 min and the reaction was terminated by the addition of 0.1 M Na2CO3. […] Background absorbance was determined using a non-enzyme control microplate containing the buffer and was subtracted from the absorbance of the samples and controls.

[6] = test system: advanced glycation end products (AGEs); assay: AGEs inhibitory activity, bovine serum albumin-methylglyoxal assay (fluorescence); format: biochemical
Experimental: The modified procedure of Lee et al. was followed. Bovine serum albumin (10 mg/mL) was incubated with 5 mM methylglyoxal in sodium phosphate buffer (100 mM; pH 7.4). […] All of the reagents and samples were […] by filtration through 0.2 μm membrane filters and the mixture was incubated at 37 °C for 7 days. The fluorescence intensity was measured at an excitation wavelength of 330 nm and an emission wavelength of 410 nm with a LS50B fluorescence spectrometer Perkin-Elmer Ltd., (Buckinghamshire, FLS, UK). Aminoguanidine was also tested as a known inhibitor.

[7] = isolated compounds, - is no activity

COC(=O)[C@]1(O)C[C@@H](OC(=O)/C=C/c2ccc(O)c(O)c2)[C@@H](O)[C@H](OC(=O)/C=C/c2ccc(O)c(O)c2)C1 [compound 6, methyl-3,5-di-O-caffeoylquinic acid]
Inhibition (%) ABTS^+ ([1]; 0.33 μg/mL): 7.49%
Inhibition (%) ABTS^+ ([1]; 1.66 μg/mL): 33.69%
Inhibition (%) ABTS^+ ([1]; 8.33 μg/mL): 98.31%
IC50 ([1]; isolated compounds): 6.03 µM
IC50 ABTS^+ radical scavenging [1, 7]: 3.20 ± 0.28 mg/L (≈ 6.03 µM)
fold higher inhibition than positive control trolox (ABTS^+) ([1]; ratio of IC50 (μM) values): 4.93 fold
inhibition at 1 µg/mL ([2]; 1 μg/mL): 24%
inhibition at 2.5 µg/mL ([2]; 2.5 μg/mL): 30.7%
inhibition at 5 µg/mL ([2]; 5 μg/mL): 50%
inhibition at 10 µg/mL ([2]; 10 μg/mL, - is no activity): 82.5%
fold higher inhibition than positive control sumarin (PTP1β) ([2]; ratio of IC50 (μM) values): 2.93 fold
rat lens aldose reductase inhibitory activity [3]: strong
inhibitory activity on AGEs (AGEs): strong inhibitory activity
recombinant aldose reductase inhibitory activity [4]: strong
Inhibition (%) α-glucosidase ([5]; 2.5 μg/mL): 22.63%
Inhibition (%) α-glucosidase ([5]; 5 μg/mL): 40.00%
Inhibition (%) α-glucosidase ([5]; 12.5 μg/mL): 59.11%
Inhibition (%) α-glucosidase ([5]; 25 μg/mL): 96.50%
IC50 ([5]; isolated compounds): 18.4 µM
IC50 α-glucosidase [5, 7]: 9.78 ± 0.79 mg/L (≈ 18.4 µM)
fold higher inhibition than positive control acarbose (α-glucosidase) ([5]; ratio of IC50 (μM) values): 31.74 fold
Inhibition (%) AGEs ([6]; 10 μg/mL): 24.24%
Inhibition (%) AGEs ([6]; 20 μg/mL): 34.59%
Inhibition (%) AGEs ([6]; 50 μg/mL): 54.77%
Inhibition (%) AGEs ([6]; 100 μg/mL): 89.47%
IC50 ([6]; isolated compounds): 82.8 µM
IC50 AGEs [6, 7]: 43.96 ± 3.89 mg/L (≈ 82.9 µM)
fold higher inhibition than positive control aminoguanidine (AGEs) ([6]; ratio of IC50 (μM) values): 17.03 fold
